Source: paper PMC4430089 (Journal of peptide science : an official publication of the …, 2014)

Key:
[1] = tested on: 3T3 Swiss mice fibroblasts; assay: Cell viability, Trypan Blue assay; settings: 15 μM peptide in PBS, 30 min exposure, three repeats on two plates
[2] = tested on: 3T3 Swiss mice fibroblasts; assay: Cellular uptake by confocal microscopy; type: cell-based; settings: 15 μM peptide in PBS, 30 min; for Preferential accumulation site within the cell: confocal microscopy without DAPI; for Cellular uptake (FITC fluorescence from cells): confocal microscopy, 37°C
[3] = tested on: Jurkat E6 human leukemia cells; assay: Cellular uptake by flow cytometry; type: cell-based; settings: 15μM peptide, 10 min
[4] = Circular dichroism: conformation and thermal unfolding; type: physicochemical; settings: for FF @ 37°C (folded fraction): calculated from CD molar ellipticity at 224 nm: FF=CD37-CD80/CDfolded-CD80

FF @ 37°C (folded fraction) [4]	Tm lower than Tm of V1 ([4]; difference of CD Tm values) [°C]	Substance	Cytotoxicity compared to control (cell viability) [1]	Preferential accumulation site within the cell [2]	Cellular uptake (FITC fluorescence from cells) [2]	Number of cells that uptake the peptide [3] [%]	Fluorescence intensity of cells lower than cells incubated with V2 [3]
0.82	3.2	FITC-AβGG-POGPOGPOGPOGPOGPOGPOGPOG-RRRRRR [Peptide V2]	no significant (p>0.05) toxicity	stronger preference to accumulate within the nuclear bodies	effectively penetrate the cellular membrane	72.8	
0.90		FITC-AβGG-POGPOGPOGPOGPOGPOGPOGPOG-RRGRRG [Peptide V1]	no significant (p>0.05) toxicity	accumulates to larger extend in cytoplasm than V2, with only small amount reaching the nucleus	effectively penetrate the cellular membrane	71.2	about 20%
